Entries after “also recorded” stand apart in the source; their conditions may differ.
Legend:
[1] = test system: mice; test: Feeding test (food intake); type: in vivo, mouse; conditions: 10 mg/kg i.p., 1-h test, vs vehicle
Method: The tested compounds were injected i.p. (10 mg/kg), and after leaving for 30 min to allow the drug assimilation, mice were placed into individual cages with access to a predefined amount of their standard lab chow (2 g) for the 1-h test.
(§1) In Vivo Biological Assays
The international and national law and policies approved by Italian Ministry of Health were used to comply with all animal care and experimental procedures. Animal studies were advised in compliance with the ARRIVE guidelines and with the recommendations made by EU Directive 2010/63/EU for animal experiments and the Basel declaration including the 3Rs concept. CD-1 male mice (10-14 weeks of age, 25-30 g of weight) were bought from Charles River (Milan, Italy). Shortly after their arrival and for at least one week, they were kept in an animal care facility under controlled standard conditions of temperature (21 ± 1 °C), light (from 7:00 AM to 7:00 PM), and relative humidity (60 ± 10%). Access to drinking water and food was assured. All procedures were performed to decrease the number of animals used (n = 7 per group) and their distress.
The test was carried out as previously described. At 24 h before the start of a feeding test, all food was removed from the home cages of mice to be tested. The next day and at least 1 h before the feeding test began, the mice were transported to the laboratory. On test days, the animals were placed in the home cages for 30 min of drug assimilation, during which food was not available. Then compounds were intraperitoneally administered (10 mg/kg). Mice were transferred into transparent and individual plastic cages with thick white paper lining the bottom and access to a pre-measured amount of their regular lab chow (2 gr) for the 1-h test. At the end of 1 h, mice were repositioned into their home cage. The amount of food left in the trial cage, including crumbs, was measured, and the amount consumed was calculated.
Feeding trials normally happened on Tuesdays and Fridays between 12:00 and 14:00 h. […]

[2] = molecular target: T1, CB1R (Rattus norvegicus, UniProt P20272); test: Ligand stimulated [35S]GTPγS binding assay in rat brain membranes; type: biochemical; conditions: for CB1R functional profile (agonist / antagonist / inverse agonist): from [35S]GTPγS binding; for CB1R functional profile (agonist / antagonist / inverse agonist) / EC50: rat brain membranes; for Emax: read-out: [35S]GTPγS stimulation Emax; for EC50: ± SEM, read-out: [35S]GTPγS stimulation EC50
T1 construct: Crude membrane fractions were prepared from the brain; from tissue; host or cells: Wistar rat whole brain, crude membrane fraction
Method: (§2) Our novel chemical compounds were tested in vitro for their binding ability, efficacy, and potency on CB1R in rat brain membrane homogenate (Table 2 and SI, Figure S1). CB1Rs are the most abundant G-protein coupled receptors in the rodent and mammalian brain; therefore, this is an appropriate model to characterize our ligands in a more physiological system.
(§3) In Vitro Biological Assays
(§4) Preparation of Brain Membrane Homogenates
Wistar rats were locally bred and handled according to the EU Directive 2010/63/EU and to the Regulations on Animal Protection (40/2013. (II. 14.) Korm. r.) of Hungary. Crude membrane fractions were prepared from the brain. Brains were quickly removed from the euthanized rats and directly put in an ice-cold 50 mM Tris-HCl buffer (pH 7.4). The collected tissue was then homogenized in 30 volumes (v/w) of an ice-cold buffer with a Braun Teflon-glass homogenizer at the highest rpm. The homogenate was centrifuged at 20,000 × g for 25 min, and the resulting pellet was suspended in the same volume of a cold buffer followed by incubation at 37 °C for 30 min to remove endogenous ligands. Centrifugation was then repeated. The final pellets were taken up in five volumes of a 50 mM Tris-HCl (pH 7.4) buffer containing 0.32 M sucrose and stored at -80 °C. Prior to the experiment, aliquots were thawed and centrifuged at 20,000 ×g for 25 min and then they were resuspended in 50 mM Tris-HCl (pH 7.4), homogenized with a Douncer, followed by the determination of the protein concentration by the method of Bradford. The membrane suspensions were immediately used either in radioligand binding experiments or in [35S]GTPγS functional assays. […]
(§5) was terminated by diluting the samples with an ice-cold wash buffer (50 mM of Tris-HCl, 2.5 mM of EGTA, 5 mM of MgCl2, 0.5% fatty acid free BSA, pH 7.4), followed by repeated washing and rapid filtration through Whatman GF/B glass fiber filters (Whatman Ltd., Maidstone, UK) pre-soaked with 0.1% polyethyleneimine (30 min before the filtration). Filtration was performed with a 24-well Brandel Cell Harvester (Gaithersburg, MD, USA). Filters were air-dried and immersed into Ultima Gold MV scintillation cocktail, and then radioactivity was measured with a TRI-CARB 2100TR liquid scintillation analyzer (Packard, Perkin Elmer, Waltham, MA, USA).
Ligand Stimulated [35S]GTPγS Binding Assay
Rat brain membranes (30 µg protein/tube), prepared as described above, were incubated with 0.05 nM of […]
mM of NaCl, 3 mM of MgCl2 and 1 mM of EGTA in a 50 mM Tris-HCl buffer (pH 7.4) for 60 min at 30 °C. Basal [35S]GTPγS binding was measured in the absence of ligands and set as 100%. Nonspecific […]
binding was determined by the addition of 10 µM unlabelled GTPγS and subtracted from total binding.
Incubation, filtration and radioactivity measurements of the samples were carried out as described above. […]
All […]
data and curves were analyzed by GraphPad Prism 5.0 (San Diego, CA, USA).

[3] = molecular target: T1, CB1R; test: [3H]WIN55,212-2 radioligand competition binding assay in rat brain membrane homogenate; conditions: for Ki: read-out: Ki [3H]WIN55,212-2 binding, 5 nM [3H]WIN55,212-2, ± SEM, n.b. = no binding of ligands was observed
Method: as §2, §3, §4
Wistar rats were locally bred and handled according to the EU Directive 2010/63/EU and to the Regulations on Animal Protection (40/2013. (II. 14.) Korm. r.) of Hungary. Crude membrane fractions were prepared from the brain. Brains were quickly removed from the euthanized rats and directly put in an ice-cold 50 mM Tris-HCl buffer (pH 7.4). The collected tissue was then homogenized in 30 volumes (v/w) of an ice-cold buffer with a Braun Teflon-glass homogenizer at the highest rpm. The homogenate was centrifuged at 20,000 × g for 25 min, and the resulting pellet was suspended in the same volume of a cold buffer followed by incubation at 37 °C for 30 min to remove endogenous ligands. Centrifugation was then repeated. The final pellets were taken up in five volumes of a 50 mM Tris-HCl (pH 7.4) buffer containing 0.32 M sucrose and stored at -80 °C. Prior to the experiment, aliquots were thawed and centrifuged at 20,000 ×g for 25 min and then they were resuspended in 50 mM Tris-HCl (pH 7.4), homogenized with a Douncer, followed by the determination of the protein concentration by the method of Bradford. The membrane suspensions were immediately used either in radioligand binding experiments or in [35S]GTPγS functional assays.
Radioligand Competition Binding Assay
Binding experiments were performed at 30 °C for 60 min in a 50 mM Tris-HCl binding buffer (pH 7.4) containing 2.5 mM of EGTA, 5 mM of MgCl2 and 0.5 mg/mL of fatty acid-free BSA in plastic tubes in a total assay volume of 1 mL that contained 0.3-0.5 mg/mL of a membrane protein. Competition binding […]
ligands. […] The incubation […]
as §5, with “MA, USA). […]” for “MA, USA).”
The results of the competition binding studies are reported as means ± S.E.M. of at least three independent experiments each performed in duplicate. In competition binding studies, the inhibitory constants (Ki) were calculated from the inflection points of the displacement curves using non-linear least-square curve fitting and the Cheng-Prusoff equation, Ki= […]/(1 + [ligand]/Kd). […]

[4] = test system: rats with spinal cord injury (SCI); conditions: repeated treatment; cited from earlier work
[5] = test system: partially satiated rats; conditions: cited from earlier work
[6] = test system: mice; conditions: mice colitis model; cited from earlier work
[7] = test system: mice; test: Zymosan-induced paw edema; type: in vivo, mouse; conditions: 100 μg/20 μL s.c., 15 min before zymosan
Method: Drugs were administered s.c. in the dorsal surface of the right hind paw at the dose of 100 μg/20 μL, 15 min before zymosan. […]
testing. […] Then, the compounds were
Compounds were prepared by freshly diluting
Then, these solutions were injected for
The total time the animal spent licking or biting its paw was calculated.
Then, paw edema was calculated as formerly
Paw volume was quantified using a
Data Analysis and Statistics
Statistically significant differences between
Data were considered statistically
The data and statistical analyses respected the recommendations on experimental design and analysis.

[8] = test system: mice; test: Hot plate test; type: in vivo, mouse; conditions: 10 μg/10 μL i.c.v., 15-120 min
Excerpt: as §1
The international and national law and policies approved by Italian Ministry of Health were used to comply with all animal care and experimental procedures. Animal studies were advised in compliance with the ARRIVE guidelines and with the recommendations made by EU Directive 2010/63/EU for animal experiments and the Basel declaration including the 3Rs concept. CD-1 male mice (10-14 weeks of age, 25-30 g of weight) were bought from Charles River (Milan, Italy). […]
The test was carried out as previously described. […] Mice were transferred into transparent and individual plastic cages with thick white paper lining the bottom and access to a pre-measured amount of their regular lab chow (2 gr) for the 1-h test. […] The amount of food left in the trial cage, including crumbs, was measured, and the amount consumed was calculated. […]
Thermal nociception (hot-plate test) was assessed with a commercially available apparatus consisting of a metal plate 25x25 cm (Ugo Basile, Italy) heated to a constant temperature of 55.0 ± 0.1 °C, on which a plastic cylinder (20 cm diameter, 18 cm high) was placed. The time of latency (s) was recorded from the moment the animal was placed in the cylinder on the hot plate until it licked its paws or jumped; the cut-off time was 60 s. […] The time course of latency was then determined at 15, 30, 45, 60, 90 and 120 min after compound treatment. […]

T1 sequence (P20272 whole entry): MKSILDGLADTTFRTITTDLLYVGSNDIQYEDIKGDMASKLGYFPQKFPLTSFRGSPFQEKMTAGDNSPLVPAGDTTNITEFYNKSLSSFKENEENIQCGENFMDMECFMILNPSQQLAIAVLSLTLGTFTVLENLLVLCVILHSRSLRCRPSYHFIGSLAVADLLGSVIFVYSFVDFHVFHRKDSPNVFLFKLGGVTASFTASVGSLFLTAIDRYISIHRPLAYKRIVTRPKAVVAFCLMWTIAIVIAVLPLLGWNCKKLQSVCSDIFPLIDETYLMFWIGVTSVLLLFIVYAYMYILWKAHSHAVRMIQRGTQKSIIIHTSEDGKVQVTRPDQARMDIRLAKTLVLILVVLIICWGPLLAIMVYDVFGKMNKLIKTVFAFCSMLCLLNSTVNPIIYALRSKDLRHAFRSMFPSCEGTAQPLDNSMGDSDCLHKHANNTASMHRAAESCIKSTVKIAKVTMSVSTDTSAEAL

Row | Compound | food intake [1] | CB1R functional profile (agonist / antagonist / inverse agonist) [2] | Emax [2] [%] | Ki [3] [nM] | EC50 [2] [nM] | Ki [3H]WIN55,212-2 binding ([3]; 5 nM [3H]WIN55,212-2, ± SEM, n.b. = no binding of ligands was observed) | neuropathic pain-related behavior [4] | food intake and motor behavior after WIN55,212-2 ([5]; higher doses (5 mg/kg), partially satiated rats) | food intake after WIN55,212-2 ([5]; i.p. 1 mg/kg and 2 mg/kg, up to 6 h after the injection) | anti-inflammatory effect in DSS-induced colitis [6] | anti-inflammatory effect on zymosan-induced paw volume increase [7] | anti-nociceptive effect in hot plate test (%MPE) [8]
1 | Cc1c(C(=O)N[C@H](C(N)=O)C(C)(C)C)nn(-c2ccc(Cl)cc2)c1-n1cccc1 [Compound 14, RS2691-tLeu-NH2] | activity profile close to that of the vehicle | antagonist | 104 ± 1.4 | 21 ± 3.8 |  |  |  |  |  |  |  | 
2 | Cc1c(C(=O)N[C@H](C(N)=O)C(C)(C)C)nn(-c2ccccc2)c1-n1cccc1 [Compound 18, RS2709-tLeu-NH2] | slight reduction in food intake | inverse agonist | 57 ± 13 | 60 ± 6.1 | 3320 ± 242 |  |  |  |  |  |  | 
3 | COC(=O)[C@@H](NC(=O)c1cc(-n2cccc2)n(-c2ccc(Cl)cc2)n1)C(C)C [Compound 21, RS2689-Val-OCH3] | slight reduction in food intake | inverse agonists | 52 ± 4.8 | 261 ± 27 | 1360 ± 139 |  |  |  |  |  |  | 
4 | COC(=O)[C@@H](NC(=O)c1cc(-n2cccc2)n(-c2ccc(Cl)cc2)n1)C(C)(C)C [Compound 22, RS2689-tLeu-OCH3] | activity profile close to that of the vehicle | inverse agonists | 43 ± 12 | 44 ± 4 | 4960 ± 333 |  |  |  |  |  |  | 
5 | COC(=O)[C@@H](NC(=O)c1nn(-c2ccc(Cl)cc2)c(-n2cccc2)c1C)C(C)(C)C [Compound 24, RS2691-tLeu-OCH3] | slight reduction in food intake | inverse agonists; also recorded: strong antagonist | 99 ± 4 | 17 ± 3.7 |  |  |  |  |  |  |  | 
6 | COC(=O)[C@@H](NC(=O)c1cc(-n2cccc2)n(-c2ccccc2)n1)C(C)(C)C [Compound 26, RS2708-tLeu-OCH3] | strong anorexic effect comparable to that of rimonabant | inverse agonists | 44 ± 5 | 283 ± 18 | 1290 ± 151 |  |  |  |  |  |  | 
7 | COC(=O)[C@@H](NC(=O)c1nn(-c2ccc(Cl)cc2Cl)c(-n2cccc2Cl)c1C)C(C)C [Compound 29, RS3516-Val-OCH3] | strong anorexic effect comparable to that of rimonabant | inverse agonists | 44 ± 10 | 30 ± 3.5 | 2840 ± 118 |  |  |  |  |  |  | 
8 | CNC(=O)[C@@H](NC(=O)c1nn(-c2ccc(Cl)cc2Cl)c(-n2cccc2Cl)c1C)C(C)(C)C [Compound 40, RS3516-tLeu-NHCH3] |  |  |  |  | 237 ± 45 | n.b. |  |  |  |  |  | 
9 | Cc1c(C(=O)c2cccc3ccccc23)c2cccc3c2n1[C@H](CN1CCOCC1)CO3 [WIN55,212-2] |  |  | 170 ± 1.7 |  |  |  | sustained decrease in neuropathic pain-related behavior | inhibit the food intake and motor behavior | hyperphagia | acting as an anti-inflammatory drug with improved pathological changes | induced an anti-inflammatory effect | diminished immediately after administration

From publication PMC10108392, “Rimonabant-Based Compounds Bearing Hydrophobic Amino Acid Derivatives as Cannabinoid Receptor Subtype 1 Ligands” (ACS Medicinal Chemistry Letters, 2023)
